# Values quoted from earlier work as cited in publication PMC8583936, “Machine Learning Assisted Approach for Finding Novel High Activity Agonists of Human Ectopic Olfactory Receptors” (International Journal of Molecular Sciences, 2021).
# Structures can show the parent of a compound that is named as a salt.
# Target: T1, OR1A1 (Homo sapiens, UniProt Q9P1Q5)
# T1 sequence (Q9P1Q5 1-309): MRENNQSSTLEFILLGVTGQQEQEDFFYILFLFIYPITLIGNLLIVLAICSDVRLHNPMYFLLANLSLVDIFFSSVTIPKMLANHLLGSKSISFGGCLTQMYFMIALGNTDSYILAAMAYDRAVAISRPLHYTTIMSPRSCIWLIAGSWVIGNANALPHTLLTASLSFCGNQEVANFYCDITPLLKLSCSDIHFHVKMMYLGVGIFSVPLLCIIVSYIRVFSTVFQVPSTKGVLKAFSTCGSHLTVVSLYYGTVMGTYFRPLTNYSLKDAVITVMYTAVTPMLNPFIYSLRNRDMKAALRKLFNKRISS
# Details: Table S1; ref Supplement references [1]-[9] as printed after each odorant name; cited from earlier work
row,Structure (SMILES),Class (agonist / non-agonist / conflicting info.) for OR1A1
1,"CC/C=C\CC/C=C/CO [(2E,6Z)-Nona-2,6-dien-1-ol]",Non-agonist
2,CCCCC[C@H](C)O [(+)-2-heptanol],Non-agonist
3,CC12CCC(CC1=O)C2(C)C (stereo not drawn) [(+)-Camphor],Non-agonist
4,C=C(C)[C@H]1CC=C(C)C(=O)C1 [(+)-Carvone],Agonist
5,C=C(C)[C@@H]1CC[C@@H](C)C(=O)C1 [(+)-Dihydrocarvone],Agonist
6,C=C1CC[C@]2(C(C)C)C[C@H]12 [(+)-Sabinene],Non-agonist
7,CC1(C)[C@H]2CC[C@]1(C)C(=O)C2 [(-)-Camphor],Non-agonist
8,CCCC/C=C/C=O [(E)-2-heptenal],Non-agonist
9,CCCCCC[C@@H](C)O [(R)-(-)-2-octanol],Non-agonist
10,CCCCCC[C@H](C)O [(S)-(+)-2-octanol],Non-agonist
11,CCOC(C)OCC [Acetal],Non-agonist
12,CC(=O)O [Acetic acid],Non-agonist
13,CC(=O)C(C)O (stereo not shown) [Acetoin],Non-agonist
14,C=CCSC [Allyl methyl sulfide],Non-agonist
15,CC1=CC[C@H](C(C)C)C=C1 [Alpha-phellandrene],Non-agonist
16,CCCCCOC(=O)CCC [Amyl butyrate],Conflicting info.
17,CCCCCOC(=O)CCCCC [Amyl hexanoate],Conflicting info.
18,COc1ccc(C=O)cc1 [Anisaldehyde],Non-agonist
19,c1ccccc1 [Benzene],Conflicting info.
20,CC(=O)OCc1ccccc1 [Benzyl acetate],Agonist
21,C/C=C/C(=O)C1=C(C)CCCC1(C)C [Beta-damascone],Conflicting info.

row,Structure (SMILES),Class (agonist / non-agonist / conflicting info.) for OR1A1
1,CCCC=O [Butanal],Non-agonist
2,CCCCOC(C)=O [Butyl acetate],Non-agonist
3,CCCCOC(=O)C(C)OC(=O)CCC (stereo not shown) [Butyl butyryl lactate],Non-agonist
4,CCCCOC=O [Butyl formate],Conflicting info.
5,CCCCCCC(=O)OCCCC [Butyl heptanoate],Non-agonist
6,CCCC(=O)O [Butyric acid],Conflicting info.
7,O=C/C=C/c1ccccc1 [Cinnamaldehyde],Agonist
8,CC(=O)OC/C=C/c1ccccc1 [Cinnamyl acetate],Non-agonist
9,OCC=Cc1ccccc1 [Cinnamyl alcohol],Non-agonist
10,CC/C=C\CCO [Cis-3-hexen-1-ol],Conflicting info.
11,O=c1ccc2ccccc2o1 [Coumarin],Non-agonist
12,CC(C)c1ccc(C=O)cc1 [Cuminaldehyde],Non-agonist
13,O=C1CCCCC1 [Cyclohexanone],Non-agonist
14,C/C=C/C(=O)C1=C(C)C=CCC1(C)C [Damascenone],Non-agonist
15,CCCCCCCCCC=O [Decanal],Conflicting info.
16,CCCCCCCCCC(=O)O [Decanoic acid / capric acid],Non-agonist
17,CCCCCC1CCCC(=O)O1 (stereo not shown) [Delta-decalactone],Non-agonist
18,CCCCCCCC1CCCC(=O)O1 (stereo not shown) [Delta-dodecalactone],Non-agonist
19,CC(=O)C(C)=O [Diacetyl],Non-agonist
20,CCCCCC1=C(C)CCC1=O [Dihydrojasmone],Agonist

# Same assay, conditions: cited from earlier work
row,Structure (SMILES),Class (agonist / non-agonist / conflicting info.) for OR1A1
1,CC(C)=C1CC[C@@H](C)CC1=O [(+)-Pulegone],Non-agonist
2,CC=O [Acetaldehyde],Non-agonist
3,CC(=O)c1ccccc1 [Acetophenone],Non-agonist
4,C=CCc1ccccc1 [Allyl benzene],Non-agonist
5,C=CCSSCC=C [Allyl disulfide],Non-agonist
6,C=CCOC(=O)CCCCCC [Allyl heptanoate],Agonist
7,C=CCOC(=O)Cc1ccccc1 [Allyl phenylacetate],Agonist
8,C[C@@]12C=CC[C@H]1[C@@H]1CCC3=CC(=O)CC[C@]3(C)[C@H]1CC2 [Androstadienone],Agonist
9,C[C@]12CCC(=O)C[C@@H]1CC[C@@H]1[C@@H]2CC[C@]2(C)C=CC[C@@H]12 [Androstenone],Conflicting info.
10,CSCSC [Bis(methylthio)methane],Non-agonist
11,CCCCOC(=O)c1ccccc1N [Butyl anthranilate],Agonist
12,CC(C)=CCC/C(C)=C/C=O [Citral],Conflicting info.

# Target: T2, OR2W1 (Homo sapiens, UniProt Q9Y3N9)
# T2 sequence (Q9Y3N9 1-320): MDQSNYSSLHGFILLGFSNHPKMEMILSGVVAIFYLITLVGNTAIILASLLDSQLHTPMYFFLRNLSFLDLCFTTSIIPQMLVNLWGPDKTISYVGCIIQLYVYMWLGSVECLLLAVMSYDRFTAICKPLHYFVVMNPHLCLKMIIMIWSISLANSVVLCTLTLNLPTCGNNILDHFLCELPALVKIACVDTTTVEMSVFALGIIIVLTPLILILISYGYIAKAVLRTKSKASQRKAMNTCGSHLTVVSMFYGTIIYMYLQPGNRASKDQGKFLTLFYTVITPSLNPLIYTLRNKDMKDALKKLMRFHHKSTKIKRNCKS
# Details: Table S2; ref Supplement references [2]-[12] as printed after each odorant name; cited from earlier work
row,Structure (SMILES),Class (agonist / non-agonist / antagonist / conflicting info.) for OR2W1
1,"CC/C=C\CC/C=C/CO [(2E,6Z)-Nona-2,6-dien-1-ol]",Non-agonist
2,CCCCC[C@H](C)O [(+)-2-heptanol],Non-agonist
3,CC12CCC(CC1=O)C2(C)C (stereo not drawn) [(+)-Camphor],Non-agonist
4,C=C(C)[C@H]1CC=C(C)C(=O)C1 [(+)-Carvone],Agonist
5,C=C(C)[C@@H]1CC[C@@H](C)C(=O)C1 [(+)-Dihydrocarvone],Agonist
6,C=C1CC[C@]2(C(C)C)C[C@H]12 [(+)-Sabinene],Non-agonist
7,CC1(C)[C@H]2CC[C@]1(C)C(=O)C2 [(-)-Camphor],Non-agonist
8,CCCC/C=C/C=O [(E)-2-heptenal],Agonist
9,CCCCCC[C@@H](C)O [(R)-(-)-2-octanol],Non-agonist
10,CCCCCC[C@H](C)O [(S)-(+)-2-octanol],Non-agonist
11,CCOC(C)OCC [Acetal],Non-agonist
12,CC(=O)O [Acetic acid],Non-agonist
13,CC(=O)C(C)O (stereo not shown) [Acetoin],Non-agonist
14,C=CCSC [Allyl methyl sulfide],Non-agonist
15,CC1=CC[C@H](C(C)C)C=C1 [Alpha-phellandrene],Non-agonist
16,CCCCCOC(=O)CCC [Amyl butyrate],Non-agonist
17,CCCCCOC(=O)CCCCC [Amyl hexanoate],Non-agonist
18,COc1ccc(C=O)cc1 [Anisaldehyde],Non-agonist
19,c1ccccc1 [Benzene],Non-agonist
20,CC(=O)OCc1ccccc1 [Benzyl acetate],Agonist

row,Structure (SMILES),Class (agonist / non-agonist / antagonist / conflicting info.) for OR2W1
1,C/C=C/C(=O)C1=C(C)CCCC1(C)C [Beta-damascone],Non-agonist
2,CCCC=O [Butanal],Non-agonist
3,CCCCOC(C)=O [Butyl acetate],Non-agonist
4,CCCCOC(=O)C(C)OC(=O)CCC (stereo not shown) [Butyl butyryl lactate],Non-agonist
5,CCCCOC=O [Butyl formate],Conflicting info.
6,CCCCCCC(=O)OCCCC [Butyl heptanoate],Non-agonist
7,CCCC(=O)O [Butyric acid],Conflicting info.
8,O=C/C=C/c1ccccc1 [Cinnamaldehyde],Non-agonist
9,CC(=O)OC/C=C/c1ccccc1 [Cinnamyl acetate],Agonist
10,OCC=Cc1ccccc1 [Cinnamyl alcohol],Non-agonist
11,CC/C=C\CCO [Cis-3-hexen-1-ol],Conflicting info.
12,O=c1ccc2ccccc2o1 [Coumarin],Conflicting info.
13,CC(C)c1ccc(C=O)cc1 [Cuminaldehyde],Non-agonist
14,O=C1CCCCC1 [Cyclohexanone],Non-agonist
15,C/C=C/C(=O)C1=C(C)C=CCC1(C)C [Damascenone],Non-agonist
16,CCCCCCCCCC=O [Decanal],Non-agonist
17,CCCCCC1CCCC(=O)O1 (stereo not shown) [Delta-decalactone],Non-agonist
18,CCCCCCCC1CCCC(=O)O1 (stereo not shown) [Delta-dodecalactone],Non-agonist
19,CC(=O)C(C)=O [Diacetyl],Non-agonist
20,CCCCCC1=C(C)CCC1=O [Dihydrojasmone],Agonist

# Same assay, conditions: Table S2; ref Supplement references [2]-[12] as printed after each odorant name; listed as Capric acid; cited from earlier work
row,Structure (SMILES),Class (agonist / non-agonist / antagonist / conflicting info.) for OR2W1
1,CCCCCCCCCC(=O)O [Decanoic acid / capric acid],Conflicting info.

# Same assay, conditions: cited from earlier work
row,Structure (SMILES),Class (agonist / non-agonist / antagonist / conflicting info.) for OR2W1
1,CC(C)=C1CC[C@@H](C)CC1=O [(+)-Pulegone],Non-agonist
2,CC=O [Acetaldehyde],Non-agonist
3,CC(=O)c1ccccc1 [Acetophenone],Agonist
4,C=CCc1ccccc1 [Allyl benzene],Non-agonist
5,C=CCSSCC=C [Allyl disulfide],Non-agonist
6,C=CCOC(=O)CCCCCC [Allyl heptanoate],Non-agonist
7,C=CCOC(=O)Cc1ccccc1 [Allyl phenylacetate],Agonist
8,C[C@@]12C=CC[C@H]1[C@@H]1CCC3=CC(=O)CC[C@]3(C)[C@H]1CC2 [Androstadienone],Antagonist
9,C[C@]12CCC(=O)C[C@@H]1CC[C@@H]1[C@@H]2CC[C@]2(C)C=CC[C@@H]12 [Androstenone],Antagonist
10,CSCSC [Bis(methylthio)methane],Non-agonist
11,CCCCOC(=O)c1ccccc1N [Butyl anthranilate],Agonist
12,CC(C)=CCC/C(C)=C/C=O [Citral],Conflicting info.
